Measured values as given in the supplement of paper PMC8617591.

Key:
[1] = system: Mycobacterium tuberculosis Erdman (autoluminescent); assay: GRinf, maximum normalised growth rate inhibition (unitless (-1 to 1)); higher = less effect (negative = killing)
Experimental: (§1)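 DiaMOND equipotent two-drug combination dose responses against autoluminescent M. tuberculosis Erdman in 8 in vitro models. Read-out is OD600, or luminescence for the intracellular and dormancy models, normalised to untreated wells. Hill-fit Einf, AUC25 and GRinf are potency metrics; FIC50 and FIC90 are Loewe-additivity fractional inhibitory concentrations, given as log2 (negative = synergy). Replicates are averaged.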

[2] = system: Mycobacterium tuberculosis Erdman (autoluminescent); assay: Einf, fitted maximum growth inhibition of combination (fraction); higher = stronger maximal inhibition
Experimental: as §1

[3] = system: Mycobacterium tuberculosis Erdman (autoluminescent); assay: FIC50 (Loewe) at 50% inhibition (log2); higher = more antagonistic
Experimental: as §1

[4] = system: Mycobacterium tuberculosis Erdman (autoluminescent); assay: FIC90 (Loewe) at 90% inhibition (log2); higher = more antagonistic
Experimental: as §1

[5] = system: Mycobacterium tuberculosis Erdman (autoluminescent); assay: AUC25, normalised area under dose response up to IC25 (fraction (0-1)); higher = more potent at low dose
Experimental: as §1

CC[C@@H](CO)NCCN[C@@H](CC)CO [ethambutol] + O=[N+]([O-])c1cn2c(n1)OC[C@@H](OCc1ccc(OC(F)(F)F)cc1)C2 [pretomanid]
Settings	AUC25, [5]	Einf, [2]	FIC50, [3]	FIC90, [4]	GRinf, [1]
in vitro model: acidic pH 5.7, time point: constant (~7 days, model-specific)	0.113	0.847	0.0798	-1.11	-0.488
in vitro model: acidic pH 5.7, time point: terminal (~4-5 doublings, model-specific)	0.0826	0.978	0.568	0.214	-0.437
in vitro model: intracellular J774, time point: constant = terminal	–	0.977	–	-1.45	-0.403

Settings	AUC25, [5]	Einf, [2]	FIC50, [3]	FIC90, [4]	GRinf, [1]
in vitro model: butyrate, time point: constant (~7 days, model-specific)	0.0746	0.924	0.254	–	0.00273
in vitro model: butyrate, time point: terminal (~4-5 doublings, model-specific)	0.0585	0.967	0.0549	-0.401	-0.0359
in vitro model: cholesterol 0.05 mM, time point: constant (~7 days, model-specific)	0.12	0.79	0.407	–	-0.319
in vitro model: cholesterol 0.05 mM, time point: terminal (~4-5 doublings, model-specific)	0.104	0.934	0.436	1.01	-0.25
in vitro model: cholesterol-high 0.2 mM, time point: constant (~7 days, model-specific)	0.0476	0.871	1.02	–	-0.159
in vitro model: cholesterol-high 0.2 mM, time point: terminal (~4-5 doublings, model-specific)	0.0356	0.99	0.975	1.06	-0.498
in vitro model: dormancy (butyrate + nitrate, low O2), time point: constant (~7 days, model-specific)	0.1	0.835	0.385	–	0.404
in vitro model: dormancy (butyrate + nitrate, low O2), time point: terminal (~4-5 doublings, model-specific)	0.112	0.968	0.00245	0.272	0.0288
in vitro model: standard 7H9 glycerol, time point: constant = terminal	0.076	0.958	0.211	-0.156	-0.109
in vitro model: valerate, time point: constant (~7 days, model-specific)	0.111	0.836	0.23	–	0.0201
in vitro model: valerate, time point: terminal (~4-5 doublings, model-specific)	0.0733	0.922	0.115	0.51	0.0884

CC(C)/N=c1\cc2n(-c3ccc(Cl)cc3)c3ccccc3nc-2cc1Nc1ccc(Cl)cc1 [clofazimine] + O=[N+]([O-])c1cn2c(n1)OC[C@@H](OCc1ccc(OC(F)(F)F)cc1)C2 [pretomanid]
Settings	AUC25, [5]	Einf, [2]	FIC50, [3]	FIC90, [4]	GRinf, [1]
in vitro model: acidic pH 5.7, time point: constant (~7 days, model-specific)	0.134	0.778	-0.0507	–	-0.287
in vitro model: acidic pH 5.7, time point: terminal (~4-5 doublings, model-specific)	0.108	0.974	-0.167	0.503	-0.285
in vitro model: intracellular J774, time point: constant = terminal	–	0.997	–	0.0803	-0.541

Settings	AUC25, [5]	Einf, [2]	FIC50, [3]	FIC90, [4]	GRinf, [1]
in vitro model: butyrate, time point: constant (~7 days, model-specific)	0.117	0.967	0.464	1.35	-0.167
in vitro model: butyrate, time point: terminal (~4-5 doublings, model-specific)	0.111	0.995	0.356	1.26	-0.159
in vitro model: cholesterol 0.05 mM, time point: constant (~7 days, model-specific)	0.12	0.704	0.602	–	0.0886
in vitro model: cholesterol 0.05 mM, time point: terminal (~4-5 doublings, model-specific)	0.132	0.919	0.632	0.298	-0.123
in vitro model: cholesterol-high 0.2 mM, time point: constant (~7 days, model-specific)	0.106	0.928	0.591	0.676	-0.208
in vitro model: cholesterol-high 0.2 mM, time point: terminal (~4-5 doublings, model-specific)	0.0964	1	0.631	0.816	-0.69
in vitro model: dormancy (butyrate + nitrate, low O2), time point: constant (~7 days, model-specific)	0.0762	0.892	-0.213	-1.07	0.195
in vitro model: dormancy (butyrate + nitrate, low O2), time point: terminal (~4-5 doublings, model-specific)	0.0498	0.991	-0.405	-0.637	-0.234
in vitro model: standard 7H9 glycerol, time point: constant = terminal	0.116	0.964	-0.193	0.585	-0.211
in vitro model: valerate, time point: constant (~7 days, model-specific)	0.136	0.884	0.762	1.18	-0.0878
in vitro model: valerate, time point: terminal (~4-5 doublings, model-specific)	0.097	0.925	-0.0183	1.26	-0.0377

CC[C@@H](CO)NCCN[C@@H](CC)CO [ethambutol] + COc1c(N2C[C@@H]3CCCN[C@@H]3C2)c(F)cc2c(=O)c(C(=O)O)cn(C3CC3)c12 [moxifloxacin]
Settings	AUC25, [5]	Einf, [2]	FIC50, [3]	FIC90, [4]	GRinf, [1]
in vitro model: acidic pH 5.7, time point: constant (~7 days, model-specific)	0.0862	0.734	-0.277	–	-0.475
in vitro model: acidic pH 5.7, time point: terminal (~4-5 doublings, model-specific)	0.0741	0.954	0.597	0.0622	-0.293
in vitro model: intracellular J774, time point: constant = terminal	–	0.983	–	-1.25	-0.327

Settings	AUC25, [5]	Einf, [2]	FIC50, [3]	FIC90, [4]	GRinf, [1]
in vitro model: butyrate, time point: constant (~7 days, model-specific)	0.0864	0.923	0.483	–	-0.00896
in vitro model: butyrate, time point: terminal (~4-5 doublings, model-specific)	0.0649	0.968	0.451	0.0888	-0.0343
in vitro model: cholesterol 0.05 mM, time point: constant (~7 days, model-specific)	0.0757	0.731	0.0661	–	-0.25
in vitro model: cholesterol 0.05 mM, time point: terminal (~4-5 doublings, model-specific)	0.0944	0.944	0.765	0.527	-0.264
in vitro model: cholesterol-high 0.2 mM, time point: constant (~7 days, model-specific)	0.0274	0.942	0.681	–	-0.404
in vitro model: cholesterol-high 0.2 mM, time point: terminal (~4-5 doublings, model-specific)	0.0429	0.999	0.886	0.669	-0.639
in vitro model: dormancy (butyrate + nitrate, low O2), time point: constant (~7 days, model-specific)	0.105	0.833	0.352	–	0.45
in vitro model: dormancy (butyrate + nitrate, low O2), time point: terminal (~4-5 doublings, model-specific)	0.0964	0.967	-0.052	0.0461	-0.155
in vitro model: standard 7H9 glycerol, time point: constant = terminal	0.066	0.975	0.0276	-0.116	-0.21
in vitro model: valerate, time point: constant (~7 days, model-specific)	0.0569	0.878	0.703	–	-0.0437
in vitro model: valerate, time point: terminal (~4-5 doublings, model-specific)	0.0611	0.955	0.344	-0.489	-0.0314
